Experimental data as given in publication PMC8997913, “Lichen Secondary Metabolites Inhibit the Wnt/β-Catenin Pathway in Glioblastoma Cells and Improve the Anticancer Effects of Temozolomide” (Cells, 2022).
Entries after “also recorded” stand apart in the source; their conditions may differ.

Tests used:
[1] = Parallel artificial membrane permeability assay for the blood-brain barrier (PAMPA-BBB); type: in vitro ADME; conditions: pH 7.4, 4 h, 37 °C; for Papp at 4 h, 24.75 µg/mL: mean ± SEM, n = 3, Pe > 1.5 high, < 1.5 low permeation predicted, read-out: Pe × 10^−6
Experimental: The parallel artificial membrane permeability assay (PAMPA) for the blood-brain barrier (BBB) (Pion Inc., Billerica, MA, USA) was used to analyze whether the lichen secondary metabolites tested in this study were able to cross the BBB. The stock solutions (5 mg/mL) of tested compounds were prepared using DMSO. Next, the donor solution (24.75 μg/mL) using Prisma buffer (pH = 7.4; Prisma HT, Pion Inc., Billerica, MA, USA) were made. Firstly, 180 μL of the donor solution were added to the donor wells. Then the filter membranes were coated with 5 μL BBB-1 lipid solution (Pion Inc., Billerica, MA, USA) and the acceptor wells were filled with 200 μL BSB (Brain Sink Buffer, Pion Inc., Billerica, MA, USA). The plates were sandwiched together and incubated for 4 h at 37 °C (Thermo Scientific MaxQ 4450, Waltham, MA, USA). The results were determined by spectroscopic analysis (Multiskan GO microplate reader, Waltham, MA, USA), with the appropriate wavelength for a given compound (240 nm for […] salazinic acid, 250 nm for atranorin and squamatic acid, 263 nm for physodic acid, and 270 nm for lecanoric acid). […] Pe is the effective permeability coefficient (cm/s), VD-donor volume, VA-acceptor volume, Ceq-equilibrium concentration, Ceq=CD×VD+CA×VA/VD+VA , S-membrane area, and t-incubation time (in seconds). […] Samples were analyzed in triplicate, and the average was reported.

[2] = test system: Wnt/β-catenin pathway target genes in A-172 cells; assay: qPCR of β-catenin and Wnt target genes, A-172; type: cell-based, human; conditions: A-172, 48 h
Experimental: (§1) Based on the MTT test, the lichen secondary metabolite concentrations allowing the survival of more than 70% of cells were chosen for the subsequent experiments. The compounds were added as follows: A-172 cells—atranorin 25 µM, caperatic acid 50 µM, physodic acid 25 µM, squamatic acid 25 µM, salazinic acid 50 µM, and lecanoric acid 100 µM; T98G cells—atranorin 50 µM, caperatic acid 100 µM, physodic acid 25 µM, squamatic acid 50 µM, salazinic acid 100 µM, and lecanoric acid 100 µM; U-138 MG cells—atranorin 25 µM, caperatic acid 50 µM, physodic acid 25 µM, squamatic acid 50 µM, salazinic acid 50 µM, and lecanoric acid 100 µM. As far as the TMZ treatment is concerned, it was added in the concentrations depending on the MGMT expression and methylation status, i.e., TMZ 30 µM was added to the A-172 cell line, and TMZ 100 µM was added to both the T98G and U-138 MG cell lines. In the case of the 2D culture, the cells were treated with the compounds 24 h after seeding, whereas, in regard to 3D culture, 5 days were needed to form spheroids. All subsequent analyses were performed 48 h after treatment.
(§2) The Universal RNA Purification Kit (EURx, Gdańsk, Poland) was used for total RNA isolation from the A-172, T98G, and U-138 MG cells, and the Revert-Aid First Strand cDNA Synthesis kit (Fermentas, Burlington, ON, Canada) was chosen for cDNA synthesis. Quantitative real-time PCR (qPCR) was performed using Hot FIREPol EvaGreen qPCR Mix Plus (Solis Biodyne, Tartu, Estonia) and LightCycler 96 (Roche Diagnostics GmbH, Mannheim, Germany). Primer sequences were previously published and their synthesis was performed at the Institute of Biochemistry and Biophysics, Warsaw, Poland. The protocol started with 15 min enzyme activation at 95 °C, followed by 40 cycles of 95 °C for 15 s; appropriate annealing temperature for 20 s; 72 °C for 40 s and the final elongation at 72 °C for 5 min. Melting curve analysis was used to confirm the generation of a single amplification product. TATA box-binding protein (TBP), a component of the DNA-binding protein complex TFIID, served as the endogenous RNA control. The results were expressed as N-fold differences in the gene expression relative to the TBP gene. The ΔΔCt method was used for fold-change calculation. All samples were analyzed in triplicate, and the reaction was repeated at least twice.

[3] = test system: Wnt/β-catenin pathway target genes in U-138 MG cells; assay: qPCR of β-catenin and Wnt target genes, U-138 MG; type: cell-based, human; conditions: 48 h; for expression of the Wnt target genes: co-treatment with TMZ 100 µM
Experimental: as §1, §2

U-138 MG cells = assay: Apoptosis, caspase-3/7 and 7-AAD flow cytometry, U-138 MG; type: cell-based, human; conditions: 48 h
Experimental: as §1
(§3) The fluorescent-based analysis of apoptosis using Muse® Caspase-3/7 Kit was performed in order to analyze the percentage of live, early, and late apoptotic; total apoptotic; and dead cells in A-172, T98G, and U-138 MG GBM cells treated with lichen secondary metabolites. The principle of the method relies on the measurement of the activity of executioner caspases, i.e., caspase-3 and caspase-7, as well as analyzing the integrity of the cell membrane with the use of a dead cell marker 7-AAD. Cell seeding and treatment followed the same protocol as for cell cycle or ROS generation analysis, while the subsequent procedures were performed according to the manufacturer’s recommendations.

HCT-116 cells [4] = test system: HCT-116 cells; design: method as in PMID 35190352; conditions: 30 µg/mL, ref [30]; cited from earlier work
HCT-116 cells [5] = test system: HCT-116 cells; design: method as in PMID 35190352; conditions: HCT-116, ref [30]; cited from earlier work
HCT-116 cells [6] = test system: HCT-116 cells; design: method as in PMID 35190352; conditions: atranorin at 30 µg/mL, ref [30]; cited from earlier work
T98G cells [7] = assay: Apoptosis, caspase-3/7 and 7-AAD flow cytometry, T98G; type: cell-based, human; conditions: 48 h, topotecan 100 nM
Experimental: as §1, §3

NIH3T3 cells = test system: NIH3T3 cells; design: method as in PMID 35190352; conditions: NIH3T3, ref [30]; cited from earlier work
T98G cells [8] = conditions: taken from the literature, ref [5]; read-out: IC50 [uM] ± SEM T98G; cited from earlier work
T98G cells [9] = assay: ROS (superoxide) generation, flow cytometry, T98G; type: cell-based, human; conditions: 48 h
Experimental: Based on the MTT test, the lichen secondary metabolite concentrations allowing the survival of more than 70% of cells were chosen for the subsequent experiments. The compounds were added as follows: A-172 cells—atranorin 25 µM, caperatic acid 50 µM, physodic acid 25 µM, squamatic acid 25 µM, salazinic acid 50 µM, and lecanoric acid 100 µM; T98G cells—atranorin 50 µM, caperatic acid 100 µM, physodic acid 25 µM, squamatic acid 50 µM, salazinic acid 100 µM, and lecanoric acid 100 µM; U-138 MG cells—atranorin 25 µM, caperatic acid 50 µM, physodic acid 25 µM, squamatic acid 50 µM, salazinic acid 50 µM, and lecanoric acid 100 µM. […]
The intracellular detection of superoxide radicals was detected by flow cytometric analysis after the staining with dihydroethidium, using The Muse® Oxidative Stress Kit (Merck, Darmstadt, Germany). Briefly, 100,000 cells per well were seeded on 6-well plates and after a 24 h incubation they were treated with the analyzed lichen secondary metabolites in the concentrations allowing >70% of cell survival; cells treated with DMSO were used as the negative control. […] The obtained data were evaluated using Muse® Analysis Software ver. […]

[10] = mRNA vs DMSO control, single agent, (TMZ 30 µM)
[11] = mRNA vs DMSO control, single agent

SMILES	Papp at 4 h, 24.75 µg/mL [1] [×10⁻⁶ cm/s]	Axin2 expression [2, 10]	Axin2 expression [3, 11]	effect on apoptosis (U-138 MG cells)	viability of HCT-116 cells (HCT-116 cells [4])	cell cycle distribution (HCT-116 cells [5])	apoptosis induction (HCT-116 cells [6])	expression of the Wnt target genes [3]	number of apoptotic cells vs control (T98G cells [7])	further results
COC(=O)c1c(C)cc(OC(=O)c2c(C)cc(O)c(C=O)c2O)c(C)c1O [Atranorin]	2.2 ± 0.1	downregulated	downregulated	anti-apoptotic effect	significantly reduced	no significant effect	significantly induced apoptosis			
CCCCCCCCCCCCCCC(C(=O)O)C(O)(CC(=O)OC)C(=O)O (stereo not drawn) [Caperatic acid]	5.2 ± 0.1	downregulated	downregulated	anti-apoptotic effect				huge downregulatory effect		NEDD9 expression [2, 11]: downregulated; NEDD9 expression ([3]; mRNA vs DMSO control, single agent, TMZ 100 µM): downregulated
Cc1cc(OC(=O)c2c(C)cc(O)cc2O)cc(O)c1C(=O)O [Lecanoric acid]	1.7 ± 0.2				significantly reduced	cell cycle arrest in the G2 phase	did not induce apoptosis		significant increase; also recorded: induced apoptosis	c-MYC expression [2, 10]: upregulated; number of late apoptotic cells vs control (U-138 MG cells; 100 µM): increased; percentage of early apoptotic cells vs control (U-138 MG cells; 100 µM): decreased; cell cycle distribution (NIH3T3 cells): cell cycle arrest in the G2 phase
Cc1cc(O)c(C=O)c2c1C(=O)Oc1c(CO)c(O)c3c(c1O2)C(O)OC3=O (stereo not drawn) [Salazinic acid]								huge downregulatory effect	significant increase; also recorded: induced apoptosis	Pe × 10^−6 (cm/s), class [1]: np (np—classified as non-permeable (i.e., Pe < 0.5 × 10^−6 cm/s)); BIRC5 expression [3, 11]: diminished; CCND1 expression [3, 11]: downregulated CCND1 expression by around half; IC50 (T98G cells [8]): > 100 µM
COc1cc(C)c(C(=O)Oc2cc(C)c(C(=O)O)c(O)c2C)c(O)c1C(=O)O [Squamatic acid]	0.5 ± 0.1	downregulated	downregulated						significant increase; also recorded: induced apoptosis	oxidative stress (superoxide) induction (T98G cells [9]): induce oxidative stress; CCND1 expression ([2]; co-treatment with TMZ 30 µM): upregulation; BIRC5 expression [2, 11]: diminished
